The text below walks through data of patent US20240293472A1, “Bee Product Extracts, Methods of Production, and Uses Thereof” (Quantum Technologies Limited, priority 2020, published 2024).

Each structure is given as a SMILES string.

For this assay, the target named is T1, HDAC1 (Homo sapiens, UniProt Q13547).
T1 construct: purchased Huntingtree Associates Ltd
As to the kind of experiment: Epigenase HDAC Activity/Inhibition Direct Assay Kit (Colorimetric). Format: biochemical. The settings on record: FIG. 20.

T1 sequence (Q13547 whole entry): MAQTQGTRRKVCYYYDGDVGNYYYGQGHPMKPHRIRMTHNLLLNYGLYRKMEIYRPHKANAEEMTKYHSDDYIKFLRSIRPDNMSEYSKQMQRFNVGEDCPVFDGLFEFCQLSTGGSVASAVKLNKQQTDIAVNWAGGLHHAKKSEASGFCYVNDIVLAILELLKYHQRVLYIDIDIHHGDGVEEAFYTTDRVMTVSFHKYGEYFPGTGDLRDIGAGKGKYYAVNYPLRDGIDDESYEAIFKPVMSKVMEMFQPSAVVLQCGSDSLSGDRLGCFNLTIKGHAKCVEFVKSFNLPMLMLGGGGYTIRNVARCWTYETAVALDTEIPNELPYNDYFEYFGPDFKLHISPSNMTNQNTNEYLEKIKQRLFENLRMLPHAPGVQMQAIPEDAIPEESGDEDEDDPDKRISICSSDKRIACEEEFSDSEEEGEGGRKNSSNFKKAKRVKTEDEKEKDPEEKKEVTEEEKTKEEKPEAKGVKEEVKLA

Turning to `CC(=O)C=O` [MGO, Methylglyoxal], the HDAC inhibition entry is “dose response inhibition”.
